Key:
Experiment in all cases: relative viability (nuclei count vs DMSO), 5 days (fraction); higher = more cells survive
BEN = tested on: BEN
Summary of the method: (§1)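 Five library-drug doses in √10 steps were combined with a fixed anchor-drug dose, or a single drug was given alone, by pin tool to lung cancer cell lines in 1536-well plates the day after seeding. Nuclei were stained and counted after 5 days. Relative viability is the nuclei count in treated wells over that in vehicle wells, taken as the median of duplicate plates.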

CAL-12T = tested on: CAL-12T
Summary of the method: as §1

COR-L 105 = tested on: COR-L 105
Summary of the method: as §1

COR-L23 = tested on: COR-L23
Summary of the method: as §1

HARA = tested on: HARA
Summary of the method: as §1

HCC-15 = tested on: HCC-15
Summary of the method: as §1

HCC-366 = tested on: HCC-366
Summary of the method: as §1

HCC-827 = tested on: HCC-827
Summary of the method: as §1

HOP-62 = tested on: HOP-62
Summary of the method: as §1

LC-2-ad = tested on: LC-2-ad
Summary of the method: as §1

LCLC-97TM1 = tested on: LCLC-97TM1
Summary of the method: as §1

LU99A = tested on: LU99A
Summary of the method: as §1

LXF-289 = tested on: LXF-289
Summary of the method: as §1

NCI-H1993 = tested on: NCI-H1993
Summary of the method: as §1

NCI-H2009 = tested on: NCI-H2009
Summary of the method: as §1

NCI-H2087 = tested on: NCI-H2087
Summary of the method: as §1

NCI-H2126 = tested on: NCI-H2126
Summary of the method: as §1

NCI-H2170 = tested on: NCI-H2170
Summary of the method: as §1

NCI-H727 = tested on: NCI-H727
Summary of the method: as §1

PC-14 = tested on: PC-14
Summary of the method: as §1

PC-3 [JPC-3] = tested on: PC-3 [JPC-3]
Summary of the method: as §1

SK-MES-1 = tested on: SK-MES-1
Summary of the method: as §1

Compound O=C(O)CCCCC(CCSCc1ccccc1)SCc1ccccc1 (centres undefined) [CPI-613] + Cc1nc(Nc2ncc(C(=O)Nc3c(C)cccc3Cl)s2)cc(N2CCN(CCO)CC2)n1 [Dasatinib] (partner 0.075 µM) has a relative viability (BEN; first compound 5 µM) of 0.341, a relative viability (BEN; first compound 15.81 µM) of 0.293 and a relative viability (BEN; first compound 50 µM) of 0.293. The relative viability (BEN; first compound 158.11 µM) was 0.267, the relative viability (BEN; first compound 500 µM) was 0.279 and the relative viability (CAL-12T; first compound 5 µM) was 0.398. It also gave a relative viability (CAL-12T; first compound 15.81 µM) of 0.454, a relative viability (CAL-12T; first compound 50 µM) of 0.263 and a relative viability (CAL-12T; first compound 158.11 µM) of 0.0331. The relative viability (CAL-12T; first compound 500 µM) was 0.0093, the relative viability (COR-L 105; first compound 5 µM) was 0.386 and the relative viability (COR-L 105; first compound 15.81 µM) was 0.285. For the same compound, the relative viability (COR-L 105; first compound 50 µM) was 0.307, the relative viability (COR-L 105; first compound 158.11 µM) was 0.278 and the relative viability (COR-L 105; first compound 500 µM) was 0.131. For the same compound, the relative viability (COR-L23; first compound 5 µM) was 0.568, the relative viability (COR-L23; first compound 15.81 µM) was 0.493 and the relative viability (COR-L23; first compound 50 µM) was 0.485. For the same compound, the relative viability (COR-L23; first compound 158.11 µM) was 0.334, the relative viability (COR-L23; first compound 500 µM) was 0.0383 and the relative viability (HARA; first compound 15.81 µM) was 0.23. It also gave a relative viability (HARA; first compound 50 µM) of 0.309, a relative viability (HARA; first compound 158.11 µM) of 0.149 and a relative viability (HARA; first compound 500 µM) of 0.0196. It also gave a relative viability (HCC-15; first compound 5 µM) of 0.56, a relative viability (HCC-15; first compound 15.81 µM) of 0.529 and a relative viability (HCC-15; first compound 50 µM) of 0.552. It also gave a relative viability (HCC-15; first compound 158.11 µM) of 0.308, a relative viability (HCC-15; first compound 500 µM) of 0.0395 and a relative viability (HCC-366; first compound 5 µM) of 0.604. The relative viability (HCC-366; first compound 15.81 µM) was 0.606, the relative viability (HCC-366; first compound 50 µM) was 0.798 and the relative viability (HCC-366; first compound 158.11 µM) was 0.309. For the same compound, the relative viability (HCC-366; first compound 500 µM) was 0.0101, the relative viability (HCC-827; first compound 5 µM) was 0.262 and the relative viability (HCC-827; first compound 15.81 µM) was 0.295. The relative viability (HCC-827; first compound 50 µM) was 0.405, the relative viability (HCC-827; first compound 158.11 µM) was 0.315 and the relative viability (HCC-827; first compound 500 µM) was 0.353. It also gave a relative viability (HOP-62; first compound 5 µM) of 0.625, a relative viability (HOP-62; first compound 15.81 µM) of 0.68 and a relative viability (HOP-62; first compound 50 µM) of 0.659. The relative viability (HOP-62; first compound 158.11 µM) was 0.521, the relative viability (HOP-62; first compound 500 µM) was 0.0443 and the relative viability (LC-2-ad; first compound 5 µM) was 0.488. It also gave a relative viability (LC-2-ad; first compound 15.81 µM) of 0.51, a relative viability (LC-2-ad; first compound 50 µM) of 0.573 and a relative viability (LC-2-ad; first compound 158.11 µM) of 0.259. The relative viability (LC-2-ad; first compound 500 µM) was 0.0544, the relative viability (LCLC-97TM1; first compound 5 µM) was 0.843 and the relative viability (LCLC-97TM1; first compound 15.81 µM) was 0.901. For the same compound, the relative viability (LCLC-97TM1; first compound 50 µM) was 0.791, the relative viability (LCLC-97TM1; first compound 158.11 µM) was 0.634 and the relative viability (LCLC-97TM1; first compound 500 µM) was 0.0334. The relative viability (LU99A; first compound 5 µM) was 0.551, the relative viability (LU99A; first compound 15.81 µM) was 0.577 and the relative viability (LU99A; first compound 50 µM) was 0.424. It also gave a relative viability (LU99A; first compound 158.11 µM) of 0.426, a relative viability (LU99A; first compound 500 µM) of 0.0381 and a relative viability (LXF-289; first compound 5 µM) of 0.208. For the same compound, the relative viability (LXF-289; first compound 15.81 µM) was 0.206, the relative viability (LXF-289; first compound 50 µM) was 0.235 and the relative viability (LXF-289; first compound 158.11 µM) was 0.203. The relative viability (LXF-289; first compound 500 µM) was 0.0464, the relative viability (NCI-H1993; first compound 5 µM) was 0.495 and the relative viability (NCI-H1993; first compound 15.81 µM) was 0.262. The relative viability (NCI-H1993; first compound 50 µM) was 0.605, the relative viability (NCI-H1993; first compound 158.11 µM) was 0.522 and the relative viability (NCI-H1993; first compound 500 µM) was 0.369. For the same compound, the relative viability (NCI-H2009; first compound 5 µM) was 0.277, the relative viability (NCI-H2009; first compound 15.81 µM) was 0.264 and the relative viability (NCI-H2009; first compound 50 µM) was 0.278. For the same compound, the relative viability (NCI-H2009; first compound 158.11 µM) was 0.0869, the relative viability (NCI-H2009; first compound 500 µM) was 0.029 and the relative viability (NCI-H2087; first compound 5 µM) was 0.809. For the same compound, the relative viability (NCI-H2087; first compound 15.81 µM) was 0.886, the relative viability (NCI-H2087; first compound 50 µM) was 0.792 and the relative viability (NCI-H2087; first compound 158.11 µM) was 0.196. The relative viability (NCI-H2087; first compound 500 µM) was 0.023, the relative viability (NCI-H2126; first compound 5 µM) was 0.561 and the relative viability (NCI-H2126; first compound 15.81 µM) was 0.58. The relative viability (NCI-H2126; first compound 50 µM) was 0.605, the relative viability (NCI-H2126; first compound 158.11 µM) was 0.331 and the relative viability (NCI-H2126; first compound 500 µM) was 0.107. For the same compound, the relative viability (NCI-H2170; first compound 5 µM) was 0.586, the relative viability (NCI-H2170; first compound 15.81 µM) was 0.566 and the relative viability (NCI-H2170; first compound 50 µM) was 0.612. It also gave a relative viability (NCI-H2170; first compound 158.11 µM) of 0.461, a relative viability (NCI-H2170; first compound 500 µM) of 0.167 and a relative viability (NCI-H727; first compound 5 µM) of 0.305. For the same compound, the relative viability (NCI-H727; first compound 15.81 µM) was 0.35, the relative viability (NCI-H727; first compound 50 µM) was 0.329 and the relative viability (NCI-H727; first compound 158.11 µM) was 0.275. For the same compound, the relative viability (NCI-H727; first compound 500 µM) was 0.138, the relative viability (PC-14; first compound 5 µM) was 0.237 and the relative viability (PC-14; first compound 15.81 µM) was 0.232. The relative viability (PC-14; first compound 50 µM) was 0.247, the relative viability (PC-14; first compound 158.11 µM) was 0.0644 and the relative viability (PC-14; first compound 500 µM) was 0.0134. It also gave a relative viability (PC-3 [JPC-3]; first compound 5 µM) of 0.903, a relative viability (PC-3 [JPC-3]; first compound 15.81 µM) of 0.948 and a relative viability (PC-3 [JPC-3]; first compound 50 µM) of 0.909. For the same compound, the relative viability (PC-3 [JPC-3]; first compound 158.11 µM) was 0.879, the relative viability (PC-3 [JPC-3]; first compound 500 µM) was 0.348 and the relative viability (SK-MES-1; first compound 5 µM) was 0.393. It also gave a relative viability (SK-MES-1; first compound 15.81 µM) of 0.428, a relative viability (SK-MES-1; first compound 50 µM) of 0.432 and a relative viability (SK-MES-1; first compound 158.11 µM) of 0.125. It also gave a relative viability (SK-MES-1; first compound 500 µM) of 0.0807.
